Literature values in patent US4652627A, “Calcitonin analogs with C-terminal D-amino acid substituents” (priority 1985, dated 1987).
Positions of bridges follow the written chain, without caps; N, C: chain ends. No end group written: not given here.

Details: relative to human calcitonin = 100%

Substance | activity
human calcitonin (CGNLSTCMLGTYTQDFNKFHTFPQTAIGVGAP-NH2; disulfide 1-7; ends not checked; UniProt P01258 85-116, looked up) [natural 32 amino acid calcitonin of human origin with C-terminal prolinamide] | 100%
deletion of the entire prolinamide moiety: human calcitonin with the entire C-terminal prolinamide moiety deleted (CGNLSTCMLGTYTQDFNKFHTFPQTAIGVGA; ends and bridges not checked; cysteine pairing not given here; UniProt P01258 85-115, looked up, fragment) | 0.12%
